From ChEMBL document CHEMBL3886450, “Tricyclic indole derivatives useful endothelial lipase inhibitors” (2015) come the findings set out here.

In the assay the target is T1, Endothelial lipase (Homo sapiens, UniProt Q9Y5X9).
T1 sequence (Q9Y5X9 whole entry): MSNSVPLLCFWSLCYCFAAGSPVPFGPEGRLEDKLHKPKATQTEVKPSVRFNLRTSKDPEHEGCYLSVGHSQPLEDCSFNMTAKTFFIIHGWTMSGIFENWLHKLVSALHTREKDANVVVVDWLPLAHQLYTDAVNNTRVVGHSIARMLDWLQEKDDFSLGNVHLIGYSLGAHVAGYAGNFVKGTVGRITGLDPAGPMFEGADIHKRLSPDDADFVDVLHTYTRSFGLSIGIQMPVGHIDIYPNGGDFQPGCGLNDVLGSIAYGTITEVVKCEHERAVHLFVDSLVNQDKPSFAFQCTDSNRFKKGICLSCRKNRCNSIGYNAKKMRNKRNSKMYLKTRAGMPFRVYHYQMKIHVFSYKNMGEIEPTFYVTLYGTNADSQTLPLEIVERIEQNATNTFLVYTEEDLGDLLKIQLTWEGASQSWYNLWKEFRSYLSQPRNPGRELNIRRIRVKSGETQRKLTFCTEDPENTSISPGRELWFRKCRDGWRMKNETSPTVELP
The experiment in a line: Endothelial Lipase Assay: To assay for cell surface lipase activity, cells expressing human endothelial lipase (EL) or LPL were plated in CellBIND® 384-well plates (Corning, Lowell, Mass.) in 25 μL serum free medium at a density of 2000 cells/well. After 18-24 hours incubation at 37° C., the medium was removed and replaced with 15 μL assay buffer [Hank's Buffered Saline Solution with 25 mM HEPES pH 7.2] and 15 μL PLA1 substrate for a final concentration of 10 μM using a Multidrop reagent dispenser. Fluorescence signal was monitored for 30 min at 37° C. on a Safire II plate reader in kinetic mode (60 cycles, kinetic interval: 30 seconds) with an excitation wavelength of 490 nm and an emission wavelength of 515 nm. In kind it is cell-based.

Compound `NS(=O)(=O)N1CCn2c(CCc3ccccc3)c(C(F)(F)F)c3cccc(c32)C1` had a concentration for half-maximal inhibition (IC50) of 68 nM. The same measure for `CC(CC(=O)N1CCn2c(CCc3ccccc3)c(C(F)(F)F)c3cccc(c32)C1)C(F)(F)F` (configuration not stated): 101 nM.

What is called IC50 is the point on the concentration scale where inhibition reaches its midpoint.
